As usually defined, the EC50 is the midpoint of the concentration-response curve. As usually defined, the GI50 is the concentration at which growth is held to half of that of the control.

Active and inactive are the calls of the source. The rule behind the calls is not given here.

One assay addresses Protein S100-A4 (Homo sapiens, UniProt P26447). The experiment in a line: Binding affinity to S100A4 (unknown origin) assessed as inhibition of S100A4/myosin-2A interaction using fluorescein-tagged myosin-2A peptide (1908 to 1923 residues) by fluorescence polarization assay. For orientation: Fluorescence polarisation rises when a labelled molecule tumbles more slowly, as on binding a larger partner.

Assay [1] deals with MDA-MB-231. Kind of assay: Growth inhibition of human MDA-MB-231 cells incubated for 24 hrs by MTT assay. The format is functional. (Formazan colour is commonly taken as a measure of viable cells.)
In assay [2] the test system is MDA-MB-231. Kind of assay: Induction of cell death in human MDA-MB-231 cells at 50 uM incubated for 24 hrs by MTT assay relative to untreated control. The format is functional.

Sequence of Protein S100-A4 (P26447 whole entry, the tested form may be a part): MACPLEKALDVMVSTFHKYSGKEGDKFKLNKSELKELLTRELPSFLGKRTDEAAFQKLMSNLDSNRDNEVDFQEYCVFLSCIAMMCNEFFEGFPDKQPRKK

Take `CCCCSC1=CC(=O)c2ccccc2C1=O`: the EC50 at Protein S100-A4 worked out at 40 µM.
With `O=C1NC(=S)S/C1=C/c1cc([N+](=O)[O-])ccc1Sc1ccc(C(F)(F)F)cn1`, the EC50 at Protein S100-A4 worked out at 46 µM. Also, the GI50 in the assay with MDA-MB-231 [1] (MDA-MB-231, 24 h) is 190 µM.
As for `Nc1ccc2c(c1)C(=O)C(=O)c1ccccc1-2`, the EC50 on Protein S100-A4 was found to be 1.6 µM.
Still for that read-out and setting: next, `CC1=C(SCCO)C(=O)c2ccccc2C1=O`: 62 µM.
Turning to `CC1=C(SCC(=O)O)C(=O)c2ccccc2C1=O`, the EC50 on Protein S100-A4 came to 39 µM.
`Cc1ccc2c(n1)C(=O)C=CC2=O`: the EC50 on Protein S100-A4 was 8.6 µM.
Still for that read-out and setting: next, `O=C1c2ccccc2-c2ccccc2C1(Cl)Cl`: 2.5 to 4.8 µM; `O=C1C=C(SCCO)C(=O)c2ccccc21`: 16 µM.
Regarding `O=C1C(=O)c2cc(Cl)ccc2-c2ccc(Cl)cc21`, the EC50 at Protein S100-A4 was 8.1 to 8.7 µM.
In the case of `NC1=C(Cl)C(=O)c2ncccc2C1=O`, on Protein S100-A4, the EC50 was found to be 13.5 µM.
As to `CSC1=CC(=O)c2ccccc2C1=O`, on Protein S100-A4, the EC50 worked out at 92.5 µM.
Turning to `O=C1C(=O)c2ccccc2-c2ccccc21` [9,10-PHENANTHRENEQUINONE], the EC50 at Protein S100-A4 worked out at 3.8 µM.
Same read-out and setting: in the case of `O=C1C(=O)c2cc([N+](=O)[O-])ccc2-c2ccccc21` it was 0.5 to 2 µM; in that of `CC(=O)NC1=C(Cl)C(=O)c2ncccc2C1=O`, 9 µM.
The same measure, in the same setting: in the case of `O=C1C=C(NCCc2cc(Br)c(O)c(Br)c2)C(=O)c2ncccc21` it was 92 µM; in that of `CCSC1=C(C)C(=O)c2ccccc2C1=O`, 51 µM; in that of `O=C1C(=O)c2cccc([N+](=O)[O-])c2-c2c1cccc2[N+](=O)[O-]`, 16 µM.
With `Nc1c2c(=O)[nH]c(=O)c2c(N)c2c(=O)c3ccccc3c(=O)c12`, the EC50 on Protein S100-A4 came out at 36 µM.
On to `COC1=C(N)C(=O)c2ncccc2C1=O`, for which, at Protein S100-A4, the EC50 came out at 12 µM.
On the same count and under the same terms, next, `O=C1C(=O)c2cccc([N+](=O)[O-])c2-c2ccccc21`: 2.5 µM.
On the same count and under the same terms, next, `O=C1C(Cl)=C(Cl)C(=O)c2ncccc21`: 14 µM.
Same read-out and setting: in the case of `O=C1C2=C(SCCS2)C(=O)c2ccccc21` it was 2.2 µM.
As for `CC(=O)NC1=C(Sc2ccc(Cl)cc2)C(=O)c2ccccc2C1=O`, the EC50 on Protein S100-A4 was 94 µM.
Same read-out and setting: in the case of `O=C1C(=C(Br)Br)c2ccccc2-c2ccccc21` it was 35 µM.
The same measure, in the same setting: next, `O=C1C(=O)c2cc(Cl)ccc2-c2ccccc21`: 1.8 µM.
On to `CC1=C(SCc2ccccc2)C(=O)c2ccccc2C1=O`, for which the EC50 at Protein S100-A4 worked out at 95 µM.
On the same count and under the same terms, in the case of `CC(=O)c1ccc2c(c1)-c1ccccc1C(=O)C2=O` it was 2.2 µM; in that of `O=C1CC(Cl)C(=O)c2ccccc21` (centres undefined), 67.5 µM.
Same read-out and setting: next, `CSC1=C(C)C(=O)c2ccccc2C1=O`: 64 µM; `O=C1c2ccccc2C(=O)C(Cl)C1Cl` (centres undefined): 27 µM.
Same read-out and setting: in the case of `Cc1ccc(C(=O)OC2=CC(=O)c3ccccc3C2=O)cc1` it was 64 µM.
As for `O=C(O)C[C@@H]1OCC=C2CN3CC[C@]45C6=CC(=O)C(=O)C([N+](=O)[O-])=C6N[C@H]4[C@H]1[C@H]2C[C@H]35`, the GI50 entry in the assay on MDA-MB-231 [1] was “inactive”.
`O=C1C(=O)c2cc(Br)cc([N+](=O)[O-])c2-c2ccc(Br)cc21`: the EC50 on Protein S100-A4 was 8.3 µM.
Turning to `CCSC1=CC(=O)c2ccccc2C1=O`, the EC50 on Protein S100-A4 was found to be 22 µM.
Take `Cc1ccc(S(=O)(=O)N/N=C2\C(=O)c3ccccc3-c3ccccc32)cc1`: at Protein S100-A4, the EC50 worked out at 8.4 µM.
In the case of `O=C1C(=C2C=Nc3ccccc32)Nc2ccc(Br)cc21`, the EC50 at Protein S100-A4 is 31 µM.
Still for that read-out and setting: in the case of `CC(=O)N(C1=C(Cl)C(=O)c2ccccc2C1=O)c1ccc(F)cc1` it was 96 µM; in that of `O=C1C(=O)c2cc(Br)ccc2-c2ccc(Br)cc21`, 19 µM; in that of `O=C(O)CCSC1=CC(=O)c2ccccc2C1=O`, 21 µM.
On to `O=C1C=CC(=O)c2ncccc21`, for which the EC50 on Protein S100-A4 stood at 16 µM.
The same measure, in the same setting: in the case of `CC(=O)NC1=CC(=O)c2cccnc2C1=O` it was 18 µM; in that of `CCCCN(CCCC)CCCNC1=CC(=O)c2ncccc2C1=O`, 70 µM.
The same measure, in the same setting: next, `NC1=CC(=O)c2ncccc2C1=O`: 34 µM.
`O=C1C(NCCF)=C(Cl)C(=O)c2ncccc21`: the EC50 at Protein S100-A4 amounted to 28.7 µM.
For `NC1=C(Br)C(=O)c2ncccc2C1=O`, the EC50 at Protein S100-A4 came out at 16 µM.
As to `O=C1C(=O)c2cc([N+](=O)[O-])ccc2-c2ccc([N+](=O)[O-])cc21`, at Protein S100-A4, the EC50 came out at 18 µM.
Still for that read-out and setting: next, `O=C1C(NCCCN2CCCCC2)=CC(=O)c2ncccc21`: 85 µM.
Molecule `Cc1oc(-c2ccc(Cl)cc2)cc1C(=O)/C(C#N)=C/c1ccccc1` had an Activity in the assay on MDA-MB-231 [2] of 100%.

For the origin of these results see ChEMBL document CHEMBL4418481, “Chemical agents for the prevention of inhibition or tumor metastasis” (2013).
